The values below come from US20230134869A1, “CRYSTAL FORM OF FREE ALKALI OF NITROGEN-CONTAINING AROMATIC DERIVATIVES” (Shanghai Hansoh Biomedical Co., Ltd., priority 2020, published 2023).

Converted amounts (≈) assume the structure as drawn.

The term thermodynamic solubility denotes solubility found after equilibrating the solid with the medium.

Data set [1] can be described thus: Solubility experiment in different media (crystal form B of the Example 53 compound). It counts as physicochemical. The following applies: thermodynamic from solid, 37° C. As to the method: The solubility of crystal form B of (S)-1′-(6-amino-5-((2-amino-3-chloropyridin-4-yl)thio)-3-fluoropyrazin-2-yl)-1,3-dihydrospiro[indene-2,4′-piperidin]-1-amine in media such as water, Simulated Gastric Fluid (SGF), Fasted State Simulated Intestinal Fluid (FaSSIF) and Fed State Simulated Intestinal Fluid (FeSSIF) was compared, so as to provide a basis for evaluating the druggability.
About 2 mg of crystal form B of (S)-1′-(6-amino-5-((2-amino-3-chloropyridin-4-yl)thio)-3-fluoropyrazin-2-yl)-1,3-dihydrospiro[indene-2,4′-piperidin]-1-amine was suspended in different media for 24 hours, respectively.

Data set [2] in a line: Solubility experiment in different media (crystal form A of the Example 35 compound). It counts as physicochemical. The following applies: 37° C., 2 hours, buffers pH 1 to 8, water, FaSGF, FaSSIF, FeSSIF.
A short description of data set [3]: Pharmacokinetics study in rats of crystal form A of the Example 35 compound, single oral administration. It counts as in vivo. The following applies: SD rats, intragastric, 10 mg/kg.
The nature of data set [4]: Crystal transformation investigation: pressure (tabletting) and grinding. Format: physicochemical. The following applies: compressed into tablets; ground 15 minutes. The text has this: The tablets were mashed to powder and characterized by XRPD.
Data set [5] can be described thus: Determination of stable crystal form by comparing DSC spectrums (Example 35 compound). It counts as physicochemical. An excerpt:
The objective is to find stable crystal forms of the compound (S)-8-(6-amino-5-((2-amino-3-chloropyridin-4-yl)thio)pyrazin-2-yl)-2-cyclopropyl-8-azaspiro[4.5]dec-2-en-1-amine by polymorphic screening.
Three crystal forms of (S)-8-(6-amino-5-((2-amino-3-chloropyridin-4-yl)thio)pyrazin-2-yl)-2-cyclopropyl-8-azaspiro[4.5]dec-2-en-1-amine, i.e., crystal forms A, B and C, were obtained by pulping, changing crystallization solvent and crystallization method.

A short description of data set [6]: Hygroscopicity experiment (crystal form A of the Example 35 compound). It counts as physicochemical.
Data set [7] is described as follows: Solid stability experiment: high temperature, high humidity (crystal form A of the Example 35 compound). It counts as physicochemical. The following applies: 60° C.; room temperature/92.5% RH; 50° C. and 75% RH; 5, 10, 20 and 30 days. How it is done:
(§1) The content was determined by HPLC using the external standard method. The related substance change was calculated by chromatographic peak area normalization method.

Data set [8] in a line: Pharmacokinetics assay in rats. The following applies: SD rats. Format: in vivo. How it is done:
SD rats were used as test animals.
(§2) The solution was subjected to ultrasound to obtain a clear solution. […] The concentration was 0.2 mg/mL.
After an overnight fast, male SD rats (3 rats per group) were administered intravenously with the test compounds at an administration dose of 1 mg/kg and an administration volume of 5 mL/kg.
0.2 mL of blood was taken from jugular vein before administration and at 0 minute, 5 minutes, 15 minutes, 0.5 hour, 1.0 hour, 2.0 hours, 4.0 hours, 8.0 hours and 24.0 hours after administration. The blood samples were stored in EDTA-2K tubes, and centrifuged for 6 minutes at 6000 rpm, at 4° C. to separate the blood plasma. The plasma samples were stored at −80° C.

Data set [9] is described as follows: Tolerance assay in mice (body weight, abnormal responses). It counts as in vivo, Balb/c mice. The following applies: oral 10 mg/kg QD. How it is done:
(§3) Balb/c mice were used as test animals.
5 g of hydroxyethyl cellulose (HEC, CMC-Na, viscosity: 800-1200 Cps) was dissolved in 1000 mL of purified water, and 10 g of Tween 80 was added. The solution was mixed well to form a clear solution.
The solution was subjected to ultrasound for 10 minutes to obtain a colorless and clear solution with a concentration of 1 mg/mL.
After an overnight fast, Balb/c mice (3 male and 3 female) were administrated orally with the test compound at an administration dose of 10 mg/kg and an administration volume of 10 mL/kg.
The mice were weighed daily before and after administration, and abnormal responses were observed. The mice were fed 4 hours after administration.

Data set [10] can be described thus: Pharmacokinetics assay in mice. It counts as in vivo. The following applies: Balb/c mice. How it is done: as §3, §2
After an overnight fast, male Balb/c mice were administered intravenously with the test compounds at an administration dose of 1 mg/kg and an administration volume of 5 mL/kg.
Blood was taken before administration and at 0 minute, 5 minutes, 15 minutes, 0.5 hour, 1.0 hour, 2.0 hours, 4.0 hours, 8.0 hours and 24.0 hours after administration. The blood samples were stored in EDTA-2K tubes, and centrifuged for 6 minutes at 6000 rpm, at 4° C. to separate the blood plasma. The plasma samples were stored at −80° C. The mice were fed 4 hours after administration.

Data set [11] in a line: Solid stability experiment under light (amorphous form, crystal forms A and B of the Example 53 compound). It counts as physicochemical. As to the method:
as §1

A short description of data set [12]: Polymorphic screening and determination of stable crystal form (Example 53 compound), DSC comparison. It counts as physicochemical. An excerpt: The objective is to find stable crystal forms of (S)-1′-(6-amino-5-((2-amino-3-chloropyridin-4-yl)thio)-3-fluoropyrazin-2-yl)-1,3-dihydrospiro[indene-2,4′-piperidin]-1-amine by polymorphic screening.
Organic solvents and water with a certain solubility was chosen to suspend (S)-1′-(6-amino-5-((2-amino-3-chloropyridin-4-yl)thio)-3-fluoropyrazin-2-yl)-1,3-dihydrospiro[indene-2,4′-piperidin]-1-amine in the solvent system, and the mixture was stirred and slurried at room temperature for one week, and then centrifuged. The supernatant was discarded, and the solid was dried under vacuum (−0.1 Mpa) at 40° C. overnight. The XRPD, DSC and TGA of the solid was determined and compared.
Five crystal forms of (S)-1′-(6-amino-5-((2-amino-3-chloropyridin-4-yl)thio)-3-fluoropyrazin-2-yl)-1,3-dihydrospiro[indene-2,4′-piperidin]-1-amine, i.e., crystal forms A, B, C, D and E, were obtained by pulping, changing crystallization solvent and crystallization method.

The nature of data set [13]: Hygroscopicity experiment (crystal form B of the Example 53 compound). It counts as physicochemical. The text has this:
The hygroscopicity of crystal form B of the compound (S)-1′-(6-amino-5-((2-amino-3-chloropyridin-4-yl)thio)-3-fluoropyrazin-2-yl)-1,3-dihydrospiro[indene-2,4′-piperidin]-1-amine under different relative humidity conditions was investigated, so as to provide a basis for the crystal form screening and storage of the compound.
Crystal form B of (S)-1′-(6-amino-5-((2-amino-3-chloropyridin-4-yl)thio)-3-fluoropyrazin-2-yl)-1,3-dihydrospiro[indene-2,4′-piperidin]-1-amine was placed in saturated water vapor with different relative humidity to achieve dynamic equilibrium between the compound and water vapor, and the percentage of hygroscopic weight gain of the compound after the equilibrium was calculated.

[14] abbreviates: Light 5000 ± 500 lux (sealed), Day 0.
The mark [15] stands for this setting: Light 5000 ± 500 lux (sealed), Day 5.
Where [16] appears, read: Light 5000 ± 500 lux (sealed), Day 10.

Turning to `Nc1nc(N2CCC3(CC2)Cc2ccccc2[C@H]3N)c(F)nc1Sc1ccnc(N)c1Cl` [(S)-1′-(6-amino-5-((2-amino-3-chloropyridin-4-yl)thio)-3-fluoropyrazin-2-yl)-1,3-dihydrospiro[indene-2,4′-piperidin]-1-amine], the solubility (thermodynamic) at 24 h in [1] (simulated gastric fluid, SGF) was 2050 µg/mL (≈ 4340 µM); in data set [1] (Fa (Fasted State Simulated Intestinal Fluid, FaSSIF)), 170 µg/mL (≈ 360 µM); in data set [1] (Fe (Fed State Simulated Intestinal Fluid, FeSSIF)), 64 µg/mL (≈ 136 µM); in data set [1] (water), 1 µg/mL (≈ 2.12 µM).
On to `Nc1nc(N2CCC3(CC=C(C4CC4)[C@H]3N)CC2)cnc1Sc1ccnc(N)c1Cl` [(S)-8-(6-amino-5-((2-amino-3-chloropyridin-4-yl)thio)pyrazin-2-yl)-2-cyclopropyl-8-azaspiro[4.5]dec-2-en-1-amine], for which the “Solubility compared in different media” value in data set [2] is recorded as “better solubility under acidic conditions”. Moreover, the “Metabolic property (pharmacokinetics experiment in rats)” value in data set [3] is listed as “good metabolic property”. Besides, the “Crystal transformation after tabletting and grinding (XRPD)” value in data set [4] is on record as “didn't undergo crystal transformation”. Besides, the “Thermodynamic stability by comparing DSC spectrums of crystal forms A, B and C” value in data set [5] is given as “better thermodynamic stability”. Besides, the “Crystal form (XRPD) after one cycle of humidification and dehumidification” value in [6] (0 to 95% relative humidity) is “the crystal form didn't transform”. In data set [6] (RH 80%), the Hygroscopic weight gain entry is on record as “about 0.544%” and the Hygroscopicity entry is reported as “slight hygroscopicity”. Further, in data set [7], the Impurity increase result was “less than 0.15%”.
`Nc1nc(N2CCC3(CC2)Cc2ccccc2[C@H]3N)c(F)nc1Sc1ccnc(N)c1Cl` [Example 53, (S)-1′-(6-amino-5-((2-amino-3-chloropyridin-4-yl)thio)-3-fluoropyrazin-2-yl)-1,3-dihydrospiro[indene-2,4′-piperidin]-1-amine] came in with a F in data set [8] of 118%. For the same molecule, in data set [9] (female Balb/c mice), the “Body weight (Mean), Day 1” value is 22.07 g; the “Body weight (Mean), Day 16” value turned out to be 25.09 g; the “Body weight changes ΔW/W1 (Mean), Day 16” value is given as 13.80%. In [9] (male Balb/c mice), the “Body weight (Mean), Day 1” value was found to be 23.01 g; the “Body weight (Mean), Day 16” value is 28.30 g; the “Body weight changes ΔW/W1 (Mean), Day 16” value amounted to 23.25%. The F in data set [10] turned out to be 71%.
`Nc1nc(N2CCC3(CC2)Cc2ccccc2[C@H]3N)c(F)nc1Sc1ccnc(N)c1Cl` [amorphous form of (S)-1′-(6-amino-5-((2-amino-3-chloropyridi] [(S)-1′-(6-amino-5-((2-amino-3-chloropyridin-4-yl)thio)-3-fluoropyrazin-2-yl)-1,3-dihydrospiro[indene-2,4′-piperidin]-1-amine]: the “10-day total impurities gain” value in data set [11] (light 5000 lx±500 lx, 10 days) amounted to 19.34%.
With `Nc1nc(N2CCC3(CC2)Cc2ccccc2[C@H]3N)c(F)nc1Sc1ccnc(N)c1Cl` [crystal form B of (S)-1′-(6-amino-5-((2-amino-3-chloropyridi] [(S)-1′-(6-amino-5-((2-amino-3-chloropyridin-4-yl)thio)-3-fluoropyrazin-2-yl)-1,3-dihydrospiro[indene-2,4′-piperidin]-1-amine], the “Thermodynamic stability by comparing DSC spectrums of crystal forms A, B, C, D and E” value in data set [12] was “best thermodynamic stability among the five crystal forms”. For the same molecule, the “Crystal form (XRPD) after one cycle of humidification and dehumidification” value in data set [13] (0 to 95% relative humidity) is listed as “the crystal form didn't transform”. Further, in data set [13] (RH 80%), the Hygroscopic weight gain result is reported as “about 1.639%” and the Hygroscopicity entry is listed as “slight hygroscopicity”. In data set [11] (setting [14]), the “Content (HPLC) Day 0” value turned out to be 98.34% and the Total impurities came out at 1.66%. In data set [11] (setting [15]), the “Content (HPLC) Day 5” value is on record as 97.28% and the Total impurities is 2.72%. Moreover, the Total impurities gain in data set [11] (Light 5000 ± 500 lux (sealed), Day 5 vs Day 0) is 1.06%. In data set [11] (setting [16]), the “Content (HPLC) Day 10” value was found to be 96.46% and the Total impurities was 3.54%. This molecule also yielded a Total impurities gain in data set [11] (Light 5000 ± 500 lux (sealed), Day 10 vs Day 0) of 1.88%.
